In patent publication US10301306B2, “Substituted dihydro-1H-pyrrolo[3,2-c]pyridin-4(5H)-ones as RIPK3 inhibitors” (BRISTOL-MYERS SQUIBB COMPANY, priority 2014, dated 2019):

target: RIPK3 (Homo sapiens (Human), UniProt Q9Y572); assay: RIPK3 HTRF Kinase Assay; assay type: binding; details: RIPK3 1 nM; HTRF probe 23 nM; 60 min at room temperature; read-out: IC50 for Inhibition of RIPK3
Sequence (Q9Y572 whole entry, species assumed): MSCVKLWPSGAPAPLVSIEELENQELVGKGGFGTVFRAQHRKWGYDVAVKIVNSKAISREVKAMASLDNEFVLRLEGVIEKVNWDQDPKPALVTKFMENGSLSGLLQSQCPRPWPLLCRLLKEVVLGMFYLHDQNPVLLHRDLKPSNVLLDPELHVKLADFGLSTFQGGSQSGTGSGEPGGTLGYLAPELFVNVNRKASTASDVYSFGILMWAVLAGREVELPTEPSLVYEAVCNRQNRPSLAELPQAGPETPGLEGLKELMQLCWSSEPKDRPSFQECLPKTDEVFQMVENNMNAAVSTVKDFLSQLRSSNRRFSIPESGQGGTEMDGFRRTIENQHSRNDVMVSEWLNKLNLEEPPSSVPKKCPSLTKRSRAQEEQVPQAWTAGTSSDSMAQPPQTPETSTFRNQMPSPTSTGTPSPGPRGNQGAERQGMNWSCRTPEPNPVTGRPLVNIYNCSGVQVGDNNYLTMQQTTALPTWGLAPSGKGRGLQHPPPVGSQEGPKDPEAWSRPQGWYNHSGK

First: Cc1csc(-c2c3c(n(Cc4ccc(F)cc4C#N)c2-c2ccncc2)CCNC3=O)c1 [Example 142]
Second: Cc1cscc1-c1c2c(n(Cc3ccc(F)cc3C#N)c1-c1ccncc1)CCNC2=O [Example 143]
The IC50 of the first is lower: < 30 nM for the first, 100 to 15000 nM for the second.

Compared with `N#Cc1cc(F)ccc1Cn1c2c(c(/C=C/c3ccccc3)c1-c1ccncc1)C(=O)NCC2` [Example 145], `Nc1cccc(-c2c3c(n(Cc4ccc(Cl)cc4F)c2-c2ccncc2)CCNC3=O)c1` [Example 169] is higher in IC50: 31 to 100 nM for the first, 100 to 15000 nM for the second. The first is the more potent here.

Compared with `O=C1NCCc2c1c(-c1ccc(F)cc1)c(-c1ccnc(NCCO)c1)n2Cc1ccc(C(F)(F)F)cc1F` [Example 146], `COCCNc1cc(-c2c(-c3ccc(F)cc3)c3c(n2Cc2ccc(C(F)(F)F)cc2F)CCNC3=O)ccn1` [Example 147] is higher in IC50: 31 to 100 nM for the first, 100 to 15000 nM for the second.

`CCC(=O)Nc1cc(-c2c(-c3ccc(F)cc3)c3c(n2Cc2ccc(C(F)(F)F)cc2F)CCNC3=O)ccn1` [Example 149] and `COCC(=O)Nc1cc(-c2c(-c3ccc(F)cc3)c3c(n2Cc2ccc(C(F)(F)F)cc2F)CCNC3=O)ccn1` [Example 150] fall in the same range of IC50: 31 to 100 nM for the first, 31 to 100 nM for the second.

`CC1(C)CNC(=O)c2c(-c3ccc(F)cc3)c(-c3ccncc3)n(CC3CCOCC3)c21` [Example 152, 3-(4-Fluorophenyl)-7,7-dimethyl-2-(pyridin-4-yl)-1-((tetrahydro-2H-pyran-4-yl)methyl)-6,7-dihydro-1H-pyrrolo[3,2-c]pyridin-4(5H)-one] and `Cn1c(-c2ccncc2)c(-c2ccc(F)cc2)c2c1C(C)(C)CNC2=O` [Example 154, 3-(4-Fluorophenyl)-1,7,7-trimethyl-2-(pyridin-4-yl)-6,7-dihydro-1H-pyrrolo[3,2-c]pyridin-4(5H)-one] fall in the same range of IC50: 100 to 15000 nM for the first, 100 to 15000 nM for the second.

Compared with `CC1(C)CNC(=O)c2c1[nH]c(-c1ccncc1)c2-c1ccc(F)cc1` [Example 153, 3-(4-Fluorophenyl)-7,7-dimethyl-2-(pyridin-4-yl)-6,7-dihydro-1H-pyrrolo[3,2-c]pyridin-4(5H)-one], `Cc1ccc(S(=O)(=O)n2c3c(c(-c4ccc(F)cc4)c2-c2ccncc2)C(=O)NCC3)cc1` [Example 162, 3-(4-Fluorophenyl)-2-(pyridin-4-yl)-1-tosyl-6,7-dihydro-1H-pyrrolo[3,2-c]pyridin-4(5H)-one] is higher in IC50: < 30 nM for the first, 100 to 15000 nM for the second.

First: O=c1[nH]ccc2c1c(-c1ccc(F)cc1)c(-c1ccnc(Cl)c1)n2Cc1ccc(C(F)(F)F)cc1F [Example 155, 2-(2-Chloropyridin-4-yl)-1-(2-fluoro-4-(trifluoromethyl)benzyl)-3-(4-fluorophenyl)-1H-pyrrolo[3,2-c]pyridin-4(5H)-one]
Second: O=c1[nH]ccc2c1c(-c1ccc(F)cc1)c(-c1ccncc1)n2Cc1ccc(C(F)(F)F)cc1F [Example 157, 1-(2-Fluoro-4-(trifluoromethyl)benzyl)-3-(4-fluorophenyl)-2-(pyridin-4-yl)-1H-pyrrolo[3,2-c]pyridin-4(5H)-one]
The IC50 of the first is higher: 100 to 15000 nM for the first, < 30 nM for the second.

Compared with `CCC(=O)Nc1cc(-c2c(-c3ccc(F)cc3)c3c(=O)[nH]ccc3n2Cc2ccc(C(F)(F)F)cc2F)ccn1` [Example 156, N-(4-(1-(2-Fluoro-4-(trifluoromethyl)benzyl)-3-(4-fluorophenyl)-4-oxo-4,5-dihydro-1H-pyrrolo[3,2-c]pyridin-2-yl)pyridin-2-yl)propionamide], `CCCC(=O)Nc1cccc(-c2c3c(n(Cc4ccc(Cl)cc4F)c2-c2ccncc2)CCNC3=O)c1` [Example 170] is higher in IC50: < 30 nM for the first, 100 to 15000 nM for the second.

First: CC(C)(C)OC(=O)Nc1cccc(-c2c3c(n(Cc4ccc(Cl)cc4F)c2-c2ccncc2)CCNC3=O)c1 [Example 163]
Second: COC(=O)c1cccc(-c2c3c(n(Cc4ccc(Cl)cc4F)c2-c2ccncc2)CCNC3=O)c1 [Example 167]
The IC50 of the first is lower: 31 to 100 nM for the first, 100 to 15000 nM for the second.

First: Cc1ccc(-c2c3c(n(Cc4ccc(Cl)cc4F)c2-c2ccncc2)CCNC3=O)s1 [Example 164]
Second: Cc1cc(-c2c3c(n(Cc4ccc(Cl)cc4F)c2-c2ccncc2)CCNC3=O)ccn1 [Example 168]
The IC50 of the first is lower: < 30 nM for the first, 100 to 15000 nM for the second.

`Cn1cc(-c2c3c(n(Cc4ccc(Cl)cc4F)c2-c2ccncc2)CCNC3=O)cn1` [Example 165] and `O=C1NCCc2c1c(-c1ccncc1F)c(-c1ccncc1)n2Cc1ccc(Cl)cc1F` [Example 166] fall in the same range of IC50: 100 to 15000 nM for the first, 100 to 15000 nM for the second.

First: Cc1cc(Cn2c3c(c(-c4cccc(NC(=O)OC(C)(C)C)c4)c2-c2ccncc2)C(=O)NCC3)n(C)n1 [Example 171]
Second: CCC(=O)Nc1cccc(-c2c3c(n(Cc4cc(C)nn4C)c2-c2ccncc2)CCNC3=O)c1 [Example 179]
The IC50 of the first is lower: 31 to 100 nM for the first, 100 to 15000 nM for the second.

`COC(=O)c1cccc(-c2c3c(n(Cc4cc(C)nn4C)c2-c2ccncc2)CCNC3=O)c1` [Example 172] and `Cc1cc(Cn2c3c(c(-c4cccc(N)c4)c2-c2ccncc2)C(=O)NCC3)n(C)n1` [Example 174] fall in the same range of IC50: 100 to 15000 nM for the first, 100 to 15000 nM for the second.

`Cc1cc(Cn2c3c(c(-c4cccc(-c5c(C)noc5C)c4)c2-c2ccncc2)C(=O)NCC3)n(C)n1` [Example 173] and `Cc1cc(Cn2c3c(c(-c4cccc(NC=O)c4)c2-c2ccncc2)C(=O)NCC3)n(C)n1` [Example 178] fall in the same range of IC50: 100 to 15000 nM for the first, 100 to 15000 nM for the second.

`Cc1cc(Cn2c3c(c(-c4cccc(NC(=O)Cc5ccccc5)c4)c2-c2ccncc2)C(=O)NCC3)n(C)n1` [Example 175] and `Cc1cc(Cn2c3c(c(-c4cccc(NC(=O)c5ccccc5)c4)c2-c2ccncc2)C(=O)NCC3)n(C)n1` [Example 176] fall in the same range of IC50: 100 to 15000 nM for the first, 100 to 15000 nM for the second.

`Cc1cc(Cn2c3c(c(-c4cccc(NC(=O)C5CC5)c4)c2-c2ccncc2)C(=O)NCC3)n(C)n1` [Example 177] and `Cc1cc(Cn2c3c(c(-c4cccc(NC(=O)OC(C)(C)C)c4)c2-c2ccnc(NC(=O)C4CC4)c2)C(=O)NCC3)n(C)n1` [Example 185, tert-Butyl (3-(2-(2-(cyclopropanecarboxamido)pyridin-4-yl)-1-((1,3-dimethyl-1H-pyrazol-5-yl)methyl)-4-oxo-4,5,6,7-tetrahydro-1H-pyrrolo[3,2-c]pyridin-3-yl)phenyl)carbamate] fall in the same range of IC50: 100 to 15000 nM for the first, 100 to 15000 nM for the second.

`Cc1cc(Cn2c3c(c(-c4cccc(CCc5ccccc5)c4)c2-c2ccncc2)C(=O)NCC3)n(C)n1` [Example 180] and `Cc1cc(Cn2c3c(c(-c4cccc(CCC5CCCCC5)c4)c2-c2ccncc2)C(=O)NCC3)n(C)n1` [Example 181] fall in the same range of IC50: 100 to 15000 nM for the first, 100 to 15000 nM for the second.

First: Cc1cc(Cn2c3c(c(-c4ccc(F)cc4)c2-c2ccncc2F)C(=O)NCC3)n(C)n1 [Example 182]
Second: COc1cnccc1-c1c(-c2ccc(F)cc2)c2c(n1Cc1cc(C)nn1C)CCNC2=O [Example 183]
The IC50 of the first is higher: 31 to 100 nM for the first, < 30 nM for the second. The second is the more potent here.

Compound `Cc1cc(Cn2c3c(c(-c4ccc(F)cc4)c2-c2cn[nH]c2)C(=O)NCC3)n(C)n1` [Example 184] has an IC50 of 100 to 15000 nM.
